Earlier results, collected in patent US20030055013A1, “HCV combination therapy” (SCHERING CORPORATION, priority 2001, published 2003).

How the values were obtained:
HIV patients = details: higher doses, PO, Phase I/II clinical trials (PharmaProjects)
[1] = system: chronic childhood cholestasis; details: 20-25 IU/kg/day (Sokool et al.)
[2] = per 1 mg (Goodman & Gilman)
[3] = stored between 2° and 8° C. and used within 24 hours of reconstitution
[4] = monotherapy, patients with chronic hepatitis C, prior studies

| Compound | potency of 1 mg in IU of Vitamin E [2] | further results |
| --- | --- | --- |
| CC(C)(Sc1cc(C(C)(C)C)c(O)c(C(C)(C)C)c1)Sc1cc(C(C)(C)C)c(O)c(C(C)(C)C)c1 [Panavia, 4,4′-isopropylidenedithiobis-2,6-di-t-butylphenol] | – | CD4 levels (HIV patients): stablized or slightly stabilized |
| d-alpha-tocopheryl polyethylene glycol 1000 succinate [Vitamin E-TPGS] | – | safety and efficacy in chronic childhood cholestasis [1]: safe and effective |
| Cc1c(C)c2c(c(C)c1OC(=O)CCC(=O)O)CC[C@@](C)(CCC[C@H](C)CCC[C@H](C)CCCC(C)C)O2 [d-alpha tocopheryl succinate] | 1.21 IU | – |
| CC(=O)Oc1c(C)c(C)c2c(c1C)CC[C@@](C)(CCC[C@H](C)CCC[C@H](C)CCCC(C)C)O2 (racemic) [dl-alpha tocopheryl acetate] | one | – |
| interferon alfa | – | stability of reconstituted aqueous solutions [3]: stable |
| NC(=O)c1ncn([C@@H]2O[C@H](CO)[C@@H](O)[C@H]2O)n1 [Ribavirin, ribavirin] | – | patients with reduction in hemoglobin of greater than 4 g/dL [4]: 15.7 % of patients |
| Cc1c(C)c2c(c(C)c1O)CC[C@@](C)(CCC[C@H](C)CCC[C@H](C)CCCC(C)C)O2 [d-alpha tocopherol] | 1.49 IU | – |
| CC(=O)Oc1c(C)c(C)c2c(c1C)CC[C@@](C)(CCC[C@H](C)CCC[C@H](C)CCCC(C)C)O2 [d-alpha tocopheryl acetate] | 1.36 IU | – |
